Measurements reported in PMC9403976, “Elucidating the path to Plasmodium prolyl-tRNA synthetase inhibitors that overcome halofuginone resistance” (Nature Communications, 2022).
Values joined by “and” are separate entries in the source; they are usually repeats but may differ in a detail not shown here. Equal values may be shown once. Read-outs that look alike come from different tables or passages of the source.

Experiments:
P. falciparum Dd2-2D4 = experiment: P. falciparum asexual blood stage (ABS) growth assay, SYBR Green, 72 h, wild-type parasites; format: cell-based, Plasmodium falciparum; settings: Plasmodium falciparum, DD2; SI Fig 16b; values on -log scale; read-out: ABS - Dd2-2D4 (converted)
PfcProRS = target: T1, PfcProRS (Plasmodium falciparum, UniProt Q8I5R7); format: binding; settings: for dose-response signal (normalized), SI Fig 8: single replicates
T1 construct: made in house; host or cells: E. coli SoluBL-21
T1 sequence (Q8I5R7 249-746): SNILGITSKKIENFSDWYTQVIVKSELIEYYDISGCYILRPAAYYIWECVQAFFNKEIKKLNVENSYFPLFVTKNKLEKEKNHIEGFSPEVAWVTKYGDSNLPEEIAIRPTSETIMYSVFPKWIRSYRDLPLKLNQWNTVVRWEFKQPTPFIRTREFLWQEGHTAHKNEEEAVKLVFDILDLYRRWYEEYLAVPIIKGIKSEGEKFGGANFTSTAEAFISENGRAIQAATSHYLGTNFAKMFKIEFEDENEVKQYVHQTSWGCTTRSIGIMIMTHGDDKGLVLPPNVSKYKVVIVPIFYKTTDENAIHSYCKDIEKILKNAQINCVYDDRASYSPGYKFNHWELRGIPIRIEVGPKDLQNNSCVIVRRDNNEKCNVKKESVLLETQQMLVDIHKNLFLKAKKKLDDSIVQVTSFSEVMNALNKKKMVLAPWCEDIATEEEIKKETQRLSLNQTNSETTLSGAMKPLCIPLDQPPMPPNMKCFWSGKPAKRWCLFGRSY

HsProRS = HsProRS (Homo sapiens, UniProt P07814); experiment: TR-FRET ligand displacement assay with tracer MAT379 (CoraFluor-1-Halo and anti-His6 antibody formats); format: binding; set-up: made in house; host or cells: E. coli SoluBL-21; settings: for TR-FRET dose-response, normalized signal (SI Fig 11): individual replicates
Sequence of HsProRS (P07814 996-1512): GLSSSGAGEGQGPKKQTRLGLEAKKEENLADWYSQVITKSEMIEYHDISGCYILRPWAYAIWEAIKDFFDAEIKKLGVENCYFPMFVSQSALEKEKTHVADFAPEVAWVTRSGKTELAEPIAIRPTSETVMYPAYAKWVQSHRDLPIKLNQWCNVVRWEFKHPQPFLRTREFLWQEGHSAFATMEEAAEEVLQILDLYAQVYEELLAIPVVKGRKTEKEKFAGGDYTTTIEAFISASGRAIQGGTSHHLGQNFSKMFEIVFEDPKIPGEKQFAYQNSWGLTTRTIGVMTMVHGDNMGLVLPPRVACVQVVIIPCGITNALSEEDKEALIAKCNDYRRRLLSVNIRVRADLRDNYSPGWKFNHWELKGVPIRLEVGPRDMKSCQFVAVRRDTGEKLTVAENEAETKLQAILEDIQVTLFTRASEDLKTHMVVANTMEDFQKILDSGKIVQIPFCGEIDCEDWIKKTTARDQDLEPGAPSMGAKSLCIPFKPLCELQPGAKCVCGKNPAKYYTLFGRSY

SMILES: CC(C)(C)OC(=O)NCC1CCN(C(=O)Nc2nccnc2C(=O)NC2Cc3ccccc3C2)CC1 [compound 9]
- EC50 (P. falciparum Dd2-2D4): 6.58 µM
- dose-response signal (normalized), SI Fig 8 (PfcProRS; Log[inhibitor] (M) -5.000): 8.25E-02 and 7.54E-02 and 9.29E-02
- dose-response signal (normalized), SI Fig 8 (PfcProRS; Log[inhibitor] (M) -5.301): 2.45E-01 and 1.32E-01 and 2.09E-01
- dose-response signal (normalized), SI Fig 8 (PfcProRS; Log[inhibitor] (M) -5.601): 4.06E-01 and 4.09E-01 and 3.31E-01
- dose-response signal (normalized), SI Fig 8 (PfcProRS; Log[inhibitor] (M) -5.904): 5.21E-01 and 6.14E-01 and 5.87E-01
- dose-response signal (normalized), SI Fig 8 (PfcProRS; Log[inhibitor] (M) -6.208): 7.48E-01 and 8.25E-01 and 7.95E-01
- dose-response signal (normalized), SI Fig 8 (PfcProRS; Log[inhibitor] (M) -6.509): 8.42E-01 and 8.68E-01 and 7.28E-01
- dose-response signal (normalized), SI Fig 8 (PfcProRS; Log[inhibitor] (M) -6.796): 9.11E-01 and 1.04E+00 and 1.02E+00
- dose-response signal (normalized), SI Fig 8 (PfcProRS; Log[inhibitor] (M) -7.108): 9.58E-01 and 9.39E-01 and 1.04E+00
- dose-response signal (normalized), SI Fig 8 (PfcProRS; Log[inhibitor] (M) -7.409): 9.93E-01 and 1.06E+00 (2×)
- dose-response signal (normalized), SI Fig 8 (PfcProRS; Log[inhibitor] (M) -7.710): 1.14E+00 and 1.04E+00 and 9.88E-01
- dose-response signal (normalized), SI Fig 8 (PfcProRS; Log[inhibitor] (M) -8.000): 9.88E-01 and 1.04E+00 and 1.02E+00
- dose-response signal (normalized), SI Fig 8 (PfcProRS; Log[inhibitor] (M) -8.301): 9.59E-01 and 9.72E-01 and 9.39E-01
- dose-response signal (normalized), SI Fig 8 (PfcProRS; Log[inhibitor] (M) -8.602): 9.15E-01 and 9.90E-01 and 9.70E-01
- dose-response signal (normalized), SI Fig 8 (PfcProRS; Log[inhibitor] (M) -9.000): 9.95E-01 and 1.01E+00 and 9.84E-01
- dose-response signal (normalized), SI Fig 8 (PfcProRS; Log[inhibitor] (M) -9.301): 1.06E+00 and 9.86E-01 and 9.57E-01
- PfcProRS -- best Kd (PfcProRS; SI Fig 16a, values on -log scale): 6.452
- HsProRS % signal at 10 μM, + 100 μM proline (HsProRS; + 100 μM proline, 10 μM): 51.7%
- Kd (HsProRS; HsProRS (KD [nM]) mean, no added proline/ATP (-)): 2510 nM
- normalized TR-FRET ligand displacement signal, dose-response replicates (SI Fig 6) (HsProRS; Log[inhibitor] (M) -5.000): 3.85E-02 and 1.39E-01 and 8.67E-02
- TR-FRET dose-response, normalized signal (SI Fig 11) (HsProRS; Log[inhibitor] (M) -5.000): 2.52E-01 and 2.44E-01 and 2.56E-01
- normalized TR-FRET ligand displacement signal, dose-response replicates (SI Fig 6) (HsProRS; Log[inhibitor] (M) -5.301): 2.62E-01 and 9.25E-02 and 2.11E-01
- TR-FRET dose-response, normalized signal (SI Fig 11) (HsProRS; Log[inhibitor] (M) -5.301): 3.68E-01 and 3.83E-01 and 3.86E-01
- normalized TR-FRET ligand displacement signal, dose-response replicates (SI Fig 6) (HsProRS; Log[inhibitor] (M) -5.601): 2.47E-01 and 2.95E-01 and 3.23E-01
- TR-FRET dose-response, normalized signal (SI Fig 11) (HsProRS; Log[inhibitor] (M) -5.601): 5.41E-01 and 5.42E-01 and 6.20E-01
- normalized TR-FRET ligand displacement signal, dose-response replicates (SI Fig 6) (HsProRS; Log[inhibitor] (M) -5.904): 5.08E-01 and 5.80E-01 and 5.13E-01
- TR-FRET dose-response, normalized signal (SI Fig 11) (HsProRS; Log[inhibitor] (M) -5.904): 6.85E-01 and 6.21E-01 and 6.49E-01
- normalized TR-FRET ligand displacement signal, dose-response replicates (SI Fig 6) (HsProRS; Log[inhibitor] (M) -6.208): 7.02E-01 and 7.67E-01 and 6.77E-01
- TR-FRET dose-response, normalized signal (SI Fig 11) (HsProRS; Log[inhibitor] (M) -6.208): 7.39E-01 and 7.74E-01 and 7.75E-01
- normalized TR-FRET ligand displacement signal, dose-response replicates (SI Fig 6) (HsProRS; Log[inhibitor] (M) -6.509): 8.58E-01 and 7.92E-01 and 7.62E-01
- TR-FRET dose-response, normalized signal (SI Fig 11) (HsProRS; Log[inhibitor] (M) -6.509): 8.32E-01 and 8.29E-01 and 7.90E-01
- normalized TR-FRET ligand displacement signal, dose-response replicates (SI Fig 6) (HsProRS; Log[inhibitor] (M) -6.796): 9.92E-01 and 1.07E+00 and 1.01E+00
- TR-FRET dose-response, normalized signal (SI Fig 11) (HsProRS; Log[inhibitor] (M) -6.796): 8.79E-01 and 8.03E-01 and 8.17E-01
- normalized TR-FRET ligand displacement signal, dose-response replicates (SI Fig 6) (HsProRS; Log[inhibitor] (M) -7.108): 8.83E-01 and 1.03E+00 and 1.07E+00
- TR-FRET dose-response, normalized signal (SI Fig 11) (HsProRS; Log[inhibitor] (M) -7.108): 8.15E-01 and 8.66E-01 and 8.33E-01
- normalized TR-FRET ligand displacement signal, dose-response replicates (SI Fig 6) (HsProRS; Log[inhibitor] (M) -7.409): 9.70E-01 and 9.46E-01 and 9.42E-01
- TR-FRET dose-response, normalized signal (SI Fig 11) (HsProRS; Log[inhibitor] (M) -7.409): 8.81E-01 and 9.27E-01 and 8.52E-01
- normalized TR-FRET ligand displacement signal, dose-response replicates (SI Fig 6) (HsProRS; Log[inhibitor] (M) -7.710): 9.63E-01 and 9.72E-01 and 1.02E+00
- TR-FRET dose-response, normalized signal (SI Fig 11) (HsProRS; Log[inhibitor] (M) -7.710): 8.59E-01 and 8.71E-01 and 8.69E-01
- normalized TR-FRET ligand displacement signal, dose-response replicates (SI Fig 6) (HsProRS; Log[inhibitor] (M) -8.000): 9.31E-01 and 9.57E-01 and 9.75E-01
- TR-FRET dose-response, normalized signal (SI Fig 11) (HsProRS; Log[inhibitor] (M) -8.000): 9.54E-01 and 9.12E-01 and 8.65E-01
- normalized TR-FRET ligand displacement signal, dose-response replicates (SI Fig 6) (HsProRS; Log[inhibitor] (M) -8.301): 9.41E-01 and 8.96E-01 and 8.89E-01
- TR-FRET dose-response, normalized signal (SI Fig 11) (HsProRS; Log[inhibitor] (M) -8.301): 9.04E-01 and 9.25E-01 and 8.91E-01
- normalized TR-FRET ligand displacement signal, dose-response replicates (SI Fig 6) (HsProRS; Log[inhibitor] (M) -8.602): 9.58E-01 and 9.45E-01 and 9.24E-01
- TR-FRET dose-response, normalized signal (SI Fig 11) (HsProRS; Log[inhibitor] (M) -8.602): 9.14E-01 and 8.78E-01 and 9.05E-01
- normalized TR-FRET ligand displacement signal, dose-response replicates (SI Fig 6) (HsProRS; Log[inhibitor] (M) -9.000): 1.05E+00 and 8.77E-01 and 8.55E-01
- TR-FRET dose-response, normalized signal (SI Fig 11) (HsProRS; Log[inhibitor] (M) -9.000): 8.65E-01 and 8.66E-01 and 9.64E-01
- normalized TR-FRET ligand displacement signal, dose-response replicates (SI Fig 6) (HsProRS; Log[inhibitor] (M) -9.301): 8.65E-01 and 9.01E-01 and 8.87E-01
- TR-FRET dose-response, normalized signal (SI Fig 11) (HsProRS; Log[inhibitor] (M) -9.301): 9.03E-01 and 9.18E-01 and 8.96E-01
